Reference: paper PMC8297771 (PLoS Pathogens, 2021)

Columns and labels:
[1] = test system: Ral-resistant (1556_1) clinical isolate; test: In vitro anti-viral assay in human PBMCs (RT activity readout); assay type: cell-based, HIV-1
Procedure: (§1) For the assay with human PBMCs, PHA stimulated cells from at least two pooled healthy were infected with HIV-1 strains in 96-well plates. Test drug dilutions, which were prepared at a 2X concentration in microtiter tubes and 100 μL of each concentration (nine total concentrations), were placed in appropriate wells using the standard format. 50 μL of a predetermined dilution of virus stock was placed in each test well (final MOI ≅ 0.1). The PBMC cultures were maintained for 7 days following infection at 37 °C, 5% CO2. After this period, cell-free supernatant samples were collected for analysis of reverse transcriptase (RT) activity. All assays were conducted in triplicates. For RT assay, a microtiter plate-based reverse transcriptase (RT) reaction was utilized (Buckheit et al., AIDS Research and Human Retroviruses 7:295–302, 1991). Tritiated thymidine triphosphate (^3H-TTP, 80 Ci/mmol, NEN) is received in 1:1 dH2O: Ethanol at 1 mCi/mL. Poly rA:oligo dT template:primer (GE Healthcare) was prepared as a stock solution by combining 150 μL poly rA (20 mg/mL) with 0.5 mL oligo dT (20 units/mL) and 5.35 mL sterile dH2O followed by aliquoting (1.0 mL) and storage at—20°C. The RT reaction buffer was prepared fresh on a daily basis and consisted of 125 μL 1.0 M EGTA, 125 μL dH2O, 125 μL 20% Triton X100, 50 μL 1.0 M Tris (pH 7.4), 50 μL 1.0 M DTT, and 40 μL 1.0 M MgCl2. The final reaction mixture was prepared by combining 1 part ^3H-TTP, 4 parts dH2O, 2.5 parts poly rA:oligo dT stock and 2.5 parts reaction buffer. Ten microliters of this reaction mixture were placed in a round bottom microtiter plate and 15 μL of virus containing supernatant is added and mixed. The plate was incubated at 37°C for 60 mins. Following incubation, the reaction volume was spotted onto DE81 filter-mats (Wallac), washed 5 times for 5 mins each in a 5% sodium phosphate buffer or 2X SSC (Life Technologies). Next they were washed 2 times for 1 min each in distilled water, 2 times for 1 min each in 70% ethanol, and then dried. Incorporated radioactivity (counts per min, CPM) was quantified using standard liquid scintillation techniques. These PBMC analysis was conducted by fee to service through Southern Research Institute (Frederick, MD, USA). The IC50 were analyzed using GraphPad Prism (Version 9) and presented as means ± S.D. of the triplicates.

[2] = test system: Ral-resistant (4736_2) clinical isolate; test: as above; assay type: cell-based, HIV-1; settings: human PBMCs, Ral-resistant (4736_2)
Procedure: as §1

[3] = test system: Ral-resistant (4736_4) clinical isolate; test: as above; assay type: cell-based, HIV-1; settings: human PBMCs, Ral-resistant (4736_4)
Procedure: as §1

[4] = test system: Ral-resistant (8070_1) clinical isolate; test: as above; assay type: cell-based, HIV-1
Procedure: as §1

[5] = test system: Ral-resistant (8070_2) clinical isolate; test: as above; assay type: cell-based, HIV-1
Procedure: as §1

[6] = test system: HIV-1 GFP vector produced from treated 293T cells, transduced into Jurkat cells; test: HIV-1 inhibition in producing cells (late stage); assay type: cell-based; settings: 60 nM in 293T producing cells; GFP by FACS in Jurkat cells
Procedure: To test for STP0404’s inhibitory effects during the late stage of HIV-1 life cycle such as the maturation step, we employed the “producing cells” setup. In T75 tissue culture flasks, 293T cells were pre-treated with and without STP0404 (0 and 60 nM) for 2 hrs prior to transfection with pD3-HIV (13 μg) and pVSV-g (6 μg), using 0.3 mg/ml polyethylenimine. After 24 hrs incubation at 37°C, the supernatant was removed and replaced with fresh media with and without STP0404 (0 and 60 nM). 48 hrs later, D3-HIV vector from each treatment group was concentrated from the collected supernatant via ultracentrifugation (22,000 rpm for 2 hrs). Following p24 quantification, using 96-well plates, similar amount of respective D3-HIV vector was used to transduce Jurkat cells in triplicates for 48 hrs. The cells were harvested and fixed with 3.7% formaldehyde before being analyzed for GFP expression using FACS (Miltenyi Biotec, VYB). Separately, the “infecting cells” setup was used to investigate the inhibitory effects of STP0404 against the early stages of HIV-1 life cycle such as the integration and transcription steps. […] All data were analyzed using GraphPad Prism (Version 9). Unpaired t tests were performed to determine the significance of the readings in respective experimental set up relative to the untreated controls. […]

[7] = test system: CHL/IU cells; test: Chromosomal aberration test in cultured mammalian cells (GLP); assay type: cell-based; settings: 25~140 μg/mL
Procedure: Bacterial reverse mutation assay (Study no. YL18407). The bacterial reverse mutation assay of STP0404 was performed in two conditions (with or without metabolic activation) for the dose range-finding test (doses of STP0404rangingfrom 2.29 to 5,000μg/plate) and the main test (doses of STP0404 ranging from 19.5 to 5,000 μg/plate) in comparison with negative control (DMSO) and active controls (sodium azide, 2-(2-furyl)-3-(5-nitro-2-furyl) acrylamide, 2-aminoanthracene, 9-aminoacridine hydrochloride). Salmonella typhimurium (TA100, TA1535) and Escherichia coli (WP2uvrA) were used for detection of base-pair substitutions. Salmonella typhimurium (TA98, TA1537) was used for detection of frameshift mutations. Chromosomal Aberration Test of STP0404 in Cultured Mammalian Cells (Study no. YL18408). Presence/absence of genotoxicity of STP0404 was determined using chromosomal aberration test carried out in CHL/IU cells. The test comprised a dose range-finding test and a main test. Micronucleus Study of STP0404 by oral administration in Rats (Study no. YL18409). STP0404 was administered orally to SD rats (3/group in preliminary test and 6/group in the main test) at dose levels of 500, 1000 and 2000 mg/kg/day once daily for 2 days in a two-test study (preliminary test and main test) to investigate the genotoxicity profile of STP0404. […] Bone marrow smear slides were evaluated (INA Research, Japan).

[8] = Human immunodeficiency virus 1, PBMC
[9] = Human immunodeficiency virus 1, PBMC, read-out: IC50

SMILES: Cc1nc2c(c(C)c(C)n2Cc2cnn(C)c2)c(-c2ccc(Cl)cc2)c1[C@H](OC(C)(C)C)C(=O)O [STP0404]
- TI (TC50 / IC50) [1]: >125,000
- IC50 [1, 8]: 80 ± 40 pM
- IC50 [2, 9]: 30 ± 40 pM
- TI (TC50 / IC50) [2]: >330,000
- IC50 [3, 9]: 40 ± 60 pM
- TI (TC50 / IC50) [3]: >250,000
- IC50 [4, 8]: 60 ± 70 pM
- TI (TC50 / IC50) ([4]; human PBMCs, Ral-resistant (8070_1)): >166,000
- TI (TC50 / IC50) [5]: >43,400
- IC50 [5, 8]: 230 ± 390 pM
- transduction efficiency, producing cells [6]: significantly reduced transduction efficiency
- chromosomal aberration-inducing potential [7]: lacked
